Reference: US7829563B2, “Aminoamides as orexin antagonists” (Hoffmann-La Roche Inc., priority 2007, dated 2010)
Where a name gives a salt, the structure may show the parent alone.

Molecular target: T1, human orexin-2 (hOX2) receptors (Homo sapiens, UniProt O43614)
T1 construct: expressed in transfected cells
T1 sequence (O43614 1-444): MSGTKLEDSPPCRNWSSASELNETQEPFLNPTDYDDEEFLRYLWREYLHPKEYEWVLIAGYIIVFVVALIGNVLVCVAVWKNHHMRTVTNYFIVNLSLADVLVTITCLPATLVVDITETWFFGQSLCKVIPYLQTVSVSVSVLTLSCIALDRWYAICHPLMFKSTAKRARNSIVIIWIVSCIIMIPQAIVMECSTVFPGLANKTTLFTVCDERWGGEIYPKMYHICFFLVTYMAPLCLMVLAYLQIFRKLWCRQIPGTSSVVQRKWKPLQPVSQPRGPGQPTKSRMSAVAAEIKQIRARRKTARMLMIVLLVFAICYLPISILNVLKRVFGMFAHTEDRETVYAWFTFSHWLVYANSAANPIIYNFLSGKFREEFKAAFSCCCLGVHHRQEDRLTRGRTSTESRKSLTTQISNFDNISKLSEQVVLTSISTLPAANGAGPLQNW
Test: Intracellular Ca2+ mobilization assay (FLIPR), antagonism of orexin-A
Assay type: cell-based
Conditions: CHO(dHFr−) cells stably expressing hOX2; orexin-A at EC80 as agonist; Kb=IC50/(1+[A]/EC50); read-out: Kb (μM) OX2R (human)
Method: R^7 and R^8 in scheme 5 are hydrogen, and the other substituents are as described above The compounds were investigated in accordance with the test given hereinafter. Intracellular Ca^2+ Mobilization Assay
The Chinese Hamster Ovary (dHFr−) mutant cell line stably expressing human orexin-1 (hOX1) or human orexin-2 (hOX2) receptors were maintained in Dulbecco's Modified Eagle Medium (1×) with GlutaMax™ 1, 4500 mg/L D-Glucose and Sodium Pyruvate (Catalog No. 31966-021, Invitrogen, Carlsbad, Calif.), 5% dialyzed fetal calf serum (Catalog No. 26400-044), 100 μg/ml penicillin and 100 μg/ml streptomycin. The cells were seeded at 5×10^4 cells/well in the poly-D-lysine treated, 96-well, black/clear-bottomed plates (Catalog No. BD356640, BD Biosciences, Palo Alto, Calif.). 24 h later, the cells were loaded for 1 h at 37° C. with 4 μM Flou-4 acetoxymethyl ester (Catalog No. F-14202, Molecular Probes, Eugene, Oreg.) in FLIPR buffer (1×HBSS, 20 mM HEPES, 2.5 mM Probenecid). Hanks' Balanced Salt Solution (HBSS) (10×) (catalog No. 14065-049) and HEPES (1M) (catalog No. 15630-056) were purchased from Invitrogen, Carlsbad, Calif. Probenecid (250 mM) (catalog No. P8761) was from Sigma, Buchs, Switzerland. The cells were washed five times with FLIPR buffer to remove excess dye and intracellular calcium mobilization, [Ca^2+]i were measured using a Fluorometric Imaging Plate Reader (FLIPR-96, Molecular Devices, Menlo Park, Calif.) as described previously (Malherbe et al., Mol. Pharmacol., 64, 823-832, 2003). Orexin A (catalog No. 1455, Toris Cookson Ltd, Bristol, UK) was used as agonist. Orexin A ([…] stock solution in DMSO) was diluted in FLIPR buffer+0.1% BSA. The EC50 and EC80 values of orexin-A were measured daily from standard agonist concentration-response curves in CHO(dHFr−)-OX1R and —OX2R cell lines. All compounds were dissolved in 100% DMSO. Inhibition curves were determined by addition of 11 concentrations (0.0001-10 μM) of inhibitory compounds and using EC80 value of orexin-A as agonist (a concentration which gave 80% of max agonist response, determined daily). The antagonists were applied 25 min (incubation at 37° C.) before the application of the agonist. Responses were measured as peak increase in fluorescence minus basal, normalized to the maximal stimulatory effect induced by EC80 value of orexin-A or orexin-B. Inhibition curves were fitted according to the Hill equation: y=100/(1+(x/IC50)^nH), where nH=slope factor using Excel-fit 4 software (Microsoft). Kb values were calculated according to the following equation Kb=IC50/(1+[A]/EC50) where A is the concentration of agonist added which is very close to agonist EC80 value, and IC50 and EC50 values were derived from the antagonist inhibition and orexin-A or B agonist curves, respectively.

SMILES	Kb
CNC(=O)[C@H](N[C@@H](CCc1ccc(Cl)cc1)c1ccc2c(c1)CCO2)c1ccccc1 (racemic) [Example 38, (S,R)-2-[(R,S)-3-(4-Chloro-phenyl)-1-(2,3-dihydro-benzofuran-5-yl)-propylamino]-N-methyl-2-phenyl-acetamide]	0.0096 µM
CNC(=O)[C@H](N[C@@H](CCc1ccc(Cl)nc1)c1ccc(OC(F)F)c(OC(F)F)c1)c1ccccc1 (racemic) [Example 296, (S,R)-2-[(R,S)-1-(3,4-Bis-difluoromethoxy-phenyl)-3-(6-chloro-pyridin-3-yl)-propylamino]-N-methyl-2-phenyl-acetamide]	0.013 µM
CNC(=O)[C@H](N[C@@H](CCc1ccc(Cl)nc1)c1ccc(F)c(C)c1)c1ccccc1 (racemic) [Example 266, (S,R)-2-[(R,S)-3-(6-Chloro-pyridin-3-yl)-1-(4-fluoro-3-methyl-phenyl)-propylamino]-N-methyl-2-phenyl-acetamide]	0.0175 µM
CNC(=O)[C@H](N[C@@H](CCc1ccc(C(F)(F)F)cc1)c1cc(C)on1)c1ccccc1 (racemic) [Example 302, (S,R)—N-Methyl-2-[(R,S)-1-(5-methyl-isoxazol-3-yl)-3-(4-trifluoromethyl-phenyl)-propylamino]-2-phenyl-acetamide]	0.0161 µM
CNC(=O)[C@H](N[C@@H](CCc1ccc(C(F)(F)F)cc1)c1cc(C)ccc1F)c1ccccc1 [Example 123, (R)-2-[(S)-1-(2-Fluoro-5-methyl-phenyl)-3-(4-trifluoromethyl-phenyl)-propylamino]-N-methyl-2-phenyl-acetamide]	0.0129 µM
CNC(=O)[C@H](N[C@@H](CCc1ccc(Cl)cn1)c1ccc(OC(F)F)c(OC(F)F)c1)c1ccccc1 (racemic) [Example 306, (S,R)-2-[(R,S)-1-(3,4-Bis-difluoromethoxy-phenyl)-3-(5-chloro-pyridin-2-yl)-propylamino]-N-methyl-2-phenyl-acetamide]	0.0063 µM
CNC(=O)[C@H](N[C@@H](CCc1cnc(Cl)cn1)c1ccc(OC(F)F)c(OC(F)F)c1)c1ccccc1 (racemic) [Example 297, (S,R)-2-[(R,S)-1-(3,4-Bis-difluoromethoxy-phenyl)-3-(5-chloro-pyrazin-2-yl)-propylamino]-N-methyl-2-phenyl-acetamide]	0.0153 µM
CNC(=O)C(NC(CCc1ccc(C)nc1)c1ccc(F)c(C)c1)c1ccccc1 (mixture of isomers) [Example 258, 2-[1-(4-Fluoro-3-methyl-phenyl)-3-(6-methyl-pyridin-3-yl)-propylamino]-N-methyl-2-phenyl-acetamide]	0.0172 µM
CNC(=O)C(NC(CCc1ccc(C(F)(F)F)cc1)c1sc(C)nc1C)c1ccc(F)cc1 (stereo not shown) [Example 80, 2-[1-(2,4-Dimethyl-thiazol-5-yl)-3-(4-trifluoromethyl-phenyl)-propylamino]-2-(4-fluoro-phenyl)-N-methyl-acetamide]	0.0192 µM
CNC(=O)[C@H](N[C@@H](CCc1ccc(C(F)(F)F)cc1)c1ccc2c(c1)OCCN2C)c1ccccc1 [Example 115, (R)—N-Methyl-2-[(S)-1-(4-methyl-3,4-dihydro-2H-benzo[1,4]oxazin-7-yl)-3-(4-trifluoromethyl-phenyl)-propylamino]-2-phenyl-acetamide]	0.0114 µM

Now from value to molecule:

Kb	SMILES
0.0196 µM	CNC(=O)[C@H](N[C@@H](CCc1ccc(C(F)(F)F)nc1)c1ccc(C)c(Cl)c1)c1ccccc1 (racemic) [Example 238, (S,R)-2-[(R,S)-1-(3-Chloro-4-methyl-phenyl)-3-(6-trifluoromethyl-pyridin-3-yl)-propylamino]-N-methyl-2-phenyl-acetamide]
0.0028 µM	CNC(=O)[C@H](N[C@@H](CCc1ccc(C(F)(F)F)nc1)c1ccc(OC)c(OC)c1)c1ccccc1 [Example 200, (R)-2-[(S)-1-(3,4-Dimethoxy-phenyl)-3-(6-trifluoromethyl-pyridin-3-yl)-propylamino]-N-methyl-2-phenyl-acetamide hydrochloride]
0.0044 µM	Cc1cc([C@H](CCc2ccc(C(F)(F)F)nc2)N[C@@H](C(=O)NCCO)c2ccccc2)ccc1F (racemic) [Example 356, (R,S)-2-[(S,R)-1-(4-Fluoro-3-methyl-phenyl)-3-(6-trifluoromethyl-pyridin-3-yl)-propylamino]-N-(2-hydroxy-ethyl)-2-phenyl-acetamide]
0.013 µM	CNC(=O)[C@H](N[C@@H](CCc1ccc(C(F)(F)F)nc1)c1ccc(OC(F)F)c(OC)c1)c1ccc(Cl)cc1 (racemic) [Example 234, (S,R)-2-(4-Chloro-phenyl)-2-[(R,S)-1-(4-difluoromethoxy-3-methoxy-phenyl)-3-(6-trifluoromethyl-pyridin-3-yl)-propylamino]-N-methyl-acetamide]
0.005 µM	CNC(=O)[C@H](N[C@@H](CCc1ccc(C(F)(F)F)nc1)c1ccc(OC)c(OC)c1)c1ccccc1 (racemic) [Example 171, (S,R)-2-[(R,S)-1-(3,4-Dimethoxy-phenyl)-3-(6-trifluoromethyl-pyridin-3-yl)-propylamino]-N-methyl-2-phenyl-acetamide]
0.0049 µM	CNC(=O)[C@H](N[C@@H](CCc1ccc(C(F)(F)F)cc1)c1ccc(OC)c(OC)c1)c1ccc(F)cc1 (racemic) [Example 34, (S,R)-2-[(R,S)-1-(3,4-Dimethoxy-phenyl)-3-(4-trifluoromethyl-phenyl)-propylamino]-2-(4-fluoro-phenyl)-N-methyl-acetamide]
0.009 µM	CNC(=O)[C@@H](N[C@@H](CCc1ccc(C(F)(F)F)cc1)c1ccc(OC)c(OC)c1)c1ccc(Cl)cc1 (racemic) [Example 33, (S,R)-2-(4-Chloro-phenyl)-2-[(S,R)-1-(3,4-dimethoxy-phenyl)-3-(4-trifluoromethyl-phenyl)-propylamino]-N-methyl-acetamide]
0.0022 µM	CNC(=O)[C@H](N[C@@H](CCc1ccc(C(F)(F)F)nc1)c1ccc(C)c(C)c1)c1ccccc1 (racemic) [Example 251, (S,R)-2-[(R,S)-1-(3,4-Dimethyl-phenyl)-3-(6-trifluoromethyl-pyridin-3-yl)-propylamino]-N-methyl-2-phenyl-acetamide]
0.0102 µM	CNC(=O)C(NC(CCc1ccc(C(F)(F)F)nc1)c1ccc(OC(F)F)c(OC(F)F)c1)c1ccccc1 (mixture of isomers) [Example 263, 2-[1-(3,4-Bis-difluoromethoxy-phenyl)-3-(6-trifluoromethyl-pyridin-3-yl)-propylamino]-N-methyl-2-phenyl-acetamide]
0.0015 µM	CNC(=O)[C@H](N[C@@H](CCc1ccc(C(F)(F)F)nc1)c1ccc(Cl)c(OC)c1)c1ccc(Cl)cc1 (racemic) [Example 220, (S,R)-2-[(R,S)-1-(4-Chloro-3-methoxy-phenyl)-3-(6-trifluoromethyl-pyridin-3-yl)-propylamino]-2-(4-chloro-phenyl)-N-methyl-acetamide]
0.0117 µM	CNC(=O)[C@H](N[C@@H](CCc1ccc(C(F)(F)F)nc1)c1ccc(F)c(OC)c1)c1ccc(Cl)cc1 (racemic) [Example 230, (S,R)-2-(4-Chloro-phenyl)-2-[(R,S)-1-(4-fluoro-3-methoxy-phenyl)-3-(6-trifluoromethyl-pyridin-3-yl)-propylamino]-N-methyl-acetamide]
0.0097 µM	CNC(=O)[C@H](N[C@@H](CCc1ccc(F)cc1)c1ccc(OC)c(OC)c1)c1ccccc1 (single isomer, unassigned) [Example 144]
